Read-outs that look alike come from different tables or passages of the source.
Tests used:
[1] = in vivo; cited from earlier work
[2] = in vivo; cited from earlier work; remark: listed apart in the source
[3] = target: CYP 2C9 (Homo sapiens, UniProt P11712); conditions: cited from earlier work
[4] = daily vitamin K supplementation and INR stability in patients with very unstable INRs; format: in vivo; conditions: eight patients with very unstable INR on VKA
Protocol: The recommended dietary allowance for vitamin K is approximately 70 mcg. […] In addition, the administration of a VKA often requires that the patient take a half tablet on some days while other patients may require 1.5 or 2 tablets on other days. Consequently, the workable range of vitamin K per tablet is 10 mcg to 600 mcg, the preferred range is 25 mcg to 400 mcg, and the most preferred is 50 mcg to 200 mcg.
It was tested whether daily vitamin K supplementation would improve stability of the INR in patients who had very unstable INRs. […] The VKORC1 status itself was not assessed because the test was done prior to the VKORC1 gene being identified. INR values were collected for several months before and after daily vitamin K was started in eight patients with very unstable INR values.

CYP 2C9, sequence (P11712 whole entry): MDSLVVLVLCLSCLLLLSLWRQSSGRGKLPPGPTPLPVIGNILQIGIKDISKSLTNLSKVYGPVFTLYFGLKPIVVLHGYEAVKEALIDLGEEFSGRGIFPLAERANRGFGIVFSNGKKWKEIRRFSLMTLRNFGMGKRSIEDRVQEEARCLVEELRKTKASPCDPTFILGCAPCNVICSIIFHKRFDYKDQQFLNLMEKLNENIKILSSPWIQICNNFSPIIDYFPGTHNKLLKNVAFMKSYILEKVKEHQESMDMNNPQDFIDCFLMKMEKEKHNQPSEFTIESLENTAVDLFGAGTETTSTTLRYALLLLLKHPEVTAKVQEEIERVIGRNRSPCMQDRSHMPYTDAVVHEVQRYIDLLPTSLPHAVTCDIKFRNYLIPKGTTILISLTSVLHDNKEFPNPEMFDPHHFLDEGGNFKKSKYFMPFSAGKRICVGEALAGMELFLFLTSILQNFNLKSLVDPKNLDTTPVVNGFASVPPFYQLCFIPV

## CCC(c1ccccc1)c1c(O)c2ccccc2oc1=O (racemic) [Racemic phenprocoumon, phenprocoumon]
[1]
  fraction eliminated as the parent drug: approximately 40%
[2]
  elimination half-life: approximately 156 hrs

## CC(=O)C[C@H](c1ccccc1)c1c(O)c2ccccc2oc1=O (single isomer, unassigned) [R-isomer of warfarin]
[3]
  metabolism by the 2C9 enzyme: not metabolized by the 2C9 enzyme

## CC(=O)C[C@@H](c1ccccc1)c1c(O)c2ccccc2oc1=O (single isomer, unassigned) [S-isomer of warfarin]
[3]; hepatic cytochrome P-450 2C9
  metabolism by the 2C9 enzyme: almost totally metabolized by the 2C9 enzyme

## vitamin K
[4]
  fluctuation of INRs after starting daily vitamin K supplement: fluctuated less
[4]; daily vitamin K supplement, INR collected several months before and after
  percent of INRs in range after versus before starting daily vitamin K: more than doubled

— patent publication US20100034878A1 (priority 2006, published 2010)
